The record followed here is US12629375B2, “Compounds with anti-tumor activity against cancer cells bearing HER2 exon 21 insertions” (Board of Regents, The University of Texas System, priority 2019, dated 2026).

One may read the IC50 as the concentration needed to halve the response being measured.

For assay [1], the system named is MCF10A cells expressing HER2 G778dupGSP. Description: MCF10A cell viability, HER2 G778dupGSP. In kind it is cell-based. The note with it: Homo sapiens, MCF-10A, 72 hours. The procedure:
(§1) Cell Viability Assay and IC50 Estimation: Cell viability was determined using the Cell Titer Glo assay (Promega) as previously described (Robichaux et al., 2018). Briefly, 2000-3000 cells per well were plated in 384-well plates (Greiner Bio-One) in technical triplicate. Cells were treated with seven different concentrations of tyrosine kinase inhibitors or vehicle alone at a final volume of 40 μL per well. After 3 days, 11μL of Cell Titer Glo was added to each well. Plates were shaken for 15 minutes, and bioluminescence was determined using a FLUOstar OPTIMA multi-mode micro-plate reader (BMG LABTECH). Bioluminescence values were normalized to DMSO treated cells, and normalized values were plotted in GraphPad Prism using non-linear regression fit to normalized data with a variable slope. IC50 values were calculated by GraphPad Prism at 50% inhibition.
(§2) Human Cell lines: MCF10A cells were purchased from ATCC and were cultured in DMEM/F12 media supplemented with 1% penicillin/streptomycin, 5% horse serum (sigma), 20 ng/ml EGF, […] hydrocortisone, and 10 μg/ml insulin. Stable cell lines were created by retroviral transduction, and retroviruses were generated by transfecting pBabe-Puro based vectors summarized in Table 1 (Addgene and Bioinnovatise) into Phoenix 293T-ampho cells (Orbigen) using Lipofectamine 2000 (Invitrogen). […]

The subject of assay [2] is HER2 Y772dupYVMA NSCLC PDX. Description: HER2 Y772dupYVMA NSCLC PDX model. In kind it is in vivo, NSG mice. The procedure: Y772dupYVMA PDX mice were purchased from Jax Labs (Model #TM01446). Fragments from tumors expressing HER2 Y772dupYVMA were inoculated into 5- to 6-week old female NSG mice (Jax Labs #005557). Mice were measured three times per week, and when tumors reached a volume of 200-300 mm^3 mice were randomized into four treatment groups: vehicle control (0.5% Methylcellulose, 0.05% Tween-80 in dH2O), 2.5 mg/kg poziotinib, 10 mg/kg T-DM1, or combination of 2.5 mg/kg poziotinib and 10 mg/kg T-DM1. Tumor volumes and body weight were measured three times per week. Mice treated with 2.5 mg/kg poziotinib received drug orally Monday-Friday (5 days per week). Mice treated with 10 mg/kg T-DM1 received one intravenous (IV) dose of T-DM1 on the day of randomization. Mice treated with combination poziotinib and T-DM1 received one IV dose of T-DM1 and began 2.5 mg/kg poziotinib five days per week, 3 days after the dose of T-DM1. Mice received a holiday from dosing if the mouse dropped in body weight by greater than 10% or if body weight dropped below 20 grams. Progression free survival was defined as tumor doubling from best response for two consecutive measurements. Complete regression was defined as greater than 95% reduction in tumor burden, and for mice with complete regression, tumor doubling was defined greater than 75 mm^3 for more than two consecutive measurements. Experiments were completed in agreement with Good Animal Practices and with approval from MD Anderson Cancer Center Institutional Animal Care and Use Committee (Houston, TX).

Assay [3] relates to MCF10A cells expressing HER2 Y772dupYVMA. Kind of assay: MCF10A cell viability, HER2 Y772dupYVMA. Format: cell-based. The note with it: Homo sapiens, MCF-10A, 72 hours. The procedure:
as §1, §2

In a further assay the test system is p-HER2. Description: Western blot of p-HER2 in MCF10A HER2 G776delinsVC cells. The note with it: 10 nM, 2 hours treatment. In kind it is cell-based, human. The procedure:
Western Blotting: For Western blotting, cells were washed in PBS and lysed in RIPPA lysis buffer (ThermoFisher) and protease inhibitor cocktail tablets (Roche). Protein (30-40 μg) was loaded into gels purchased from BioRad. BioRad semi-dry transfer was used and then probed with antibodies against, pHER2, HER2, pPI3K, PI3K, p-AKT, AKT, p-ERK1/2, and ERK1/2 (1:1000; Cell Signaling). Blots were probed with antibodies against vinculin or β-actin (Sigma-Aldrich) as a loading control, and exposed using ECL Western Blotting substrate (Promega).
(A western blot detects proteins with antibodies after separation by electrophoresis.)

The subject of assay [4] is Ba/F3 cells stably expressing HER2 mutations (exons 19, 20, 21). Kind of assay: Ba/F3 HER2 mutant cell viability (Cell Titer Glo) TKI screen. In kind it is cell-based. The procedure: Briefly, stable Ba/F3 cell lines were generated by retroviral transduction of Ba/F3 cell line for 12 hours. […] Three days after transduction, 2 μg/ml puromycin (Invitrogen) was added to the RPMI media. After 5 days of selection, cells were stained with FITC-HER2 (Biolegend) sorted by FACS. Cell lines were then grown in the absence of IL-3 for two weeks and cell viability was assessed every three days using the Cell Titer Glo assay (Progema).
as §1, with “Briefly,” for “Cell Viability Assay and IC50 Estimation: Cell viability was determined using the Cell Titer Glo assay (Promega) as previously described (Robichaux et al., 2018). Briefly,”, “slope.” for “slope. IC50 values were calculated by GraphPad Prism at 50% inhibition.”
In general terms: Cellular ATP, detected with luciferase, serves as a proxy for viable cell number.

The test system of assay [5] is CW-2 colorectal cell xenograft (HER2 L755S). Description: CW-2 xenograft mouse model. The conditions noted are these: day 21, 5 mg/kg, 5 days/week. Format: in vivo, nu/nu nude mice. The procedure: In vivo xenograft studies: CW-2 cell line xenografts were created by injecting 1×10^6 cells in 50% matrigel into 6 week old female nu/nu nude mice. When tumors reached 350 mm^3 mice were randomized into 4 groups: 20 mg/kg afatinib, 5 mg/kg poziotinib, 30 mg/kg neratinib, or vehicle control (0.5% Methylcellulose, 2% Tween-80 in dH2O). Tumor volumes were measured three times per week. Mice received drug Monday-Friday (5 days per week), but began dosing on Wednesday allowing for a 2 day holiday after the first 3 days of dosing.

The test system of assay [6] is MCF10A cells expressing HER2 G776del insVC. Description: MCF10A cell viability, HER2 G776del insVC. In kind it is cell-based. The conditions noted are these: Homo sapiens, MCF-10A, 72 hours. The procedure: as §1, §2

On to `C=CC(=O)N1CCC(Oc2cc3c(Nc4ccc(Cl)c(Cl)c4F)ncnc3cc2OC)CC1` [poziotinib, 1-[4-[4-(3,4-dichloro-2-fluoroanilino)-7-methoxyquinazolin-6-yl]oxypiperidin-1-yl]prop-2-en-1-one], for which the IC50 worked out at 4.5 nM in assay [1], 8.3 nM in assay [3] and 12 nM in assay [6]. In addition, in assay [2] (day 15 (best response), poziotinib 2.5 mg/kg, T-DM1 10 mg/kg single dose), the “mice with complete tumor regression” value is on record as 0/12. Moreover, in assay [2] (poziotinib 2.5 mg/kg 5 days per week, T-DM1 10 mg/kg single IV dose), the “median PFS (mPFS), time to tumor doubling from best response” value turned out to be 15 days. Moreover, the “inhibition of p-HER2” value with p-HER2 is given as “completely inhibits”. Moreover, the “average IC50 compared with afatinib, neratinib, or tarloxotinib-TKI” value in assay [4] (HER2 exon 19 and 20 mutations) is reported as “significantly more efficacious”; in assay [4] (HER2 exon 21 mutants), “no significant difference”. Also, the “concentration inhibiting HER2 exon 21 mutants” value in assay [4] (HER2 exon 21 mutants) is on record as “low nanomolar concentrations”. In addition, in assay [4] (all Ba/F3 HER2 mutant cell lines, 72 hours), the “average IC50 across all HER2 mutation variants and TKIs tested” value is “lowest average IC50”. For the same compound, in assay [4] (exons 19, 20, 21, 72 hours), the “inhibitory activity for HER2 mutants across all three exons” value is recorded as “had inhibitory activity”. Moreover, the “reduction in tumor volume compared to the vehicle treated group” value in assay [5] is listed as 58%.
